# In patent US10464882B2, “Y-type discrete polyethylene glycol derivative and preparation method thereof” (JENKEM TECHNOLOGY CO., LTD. (BEIJING), priority 2015, dated 2019):
# Read-outs that look alike come from different tables or passages of the source.
# Experiments:
# [1] = Comparison test of dispersion of cholesterol and cholesterol derivatives in water; assay type: physicochemical; settings: 20 mg in 50 mL water, 20° C. water bath, shaken vigorously every 5 min for 30 min
# [2] = Comparison test of solubility of cholesterol derivatives in water (Chinese pharmacopoeia method); assay type: physicochemical
# Protocol: The solubility of cholesterol derivatives in water was determined according to the method in “Chinese pharmacopoeia”: […] After 30 min, 1.5 mL water was further added, and the resulting mixture was placed in a 20° C. water bath with the same procedure for dissolution. Until 9 mL water was added, the solution was clear. […] After 30 min, 5 mL water was further added, and the resulting mixture was placed in a 20° C. water bath with the same procedure for dissolution until 25 mL water was added. 5 mL solution was taken from the dilute solution, the same procedure was carried out until 10 mL water was added, and the solution was clear.
SMILES,"dispersion in water, naked eye observation [1]",solubility in water [2],"solubility in water ([2]; water, 20° C. water bath, shaken every 5 min for 30 min)"
COCCOCCOCCOCCOCCOCCOCCOC(=O)O[C@H]1CC[C@@]2(C)C(=CC[C@H]3[C@@H]4CC[C@H]([C@H](C)CCCC(C)C)[C@@]4(C)CC[C@@H]32)C1 [cholesterol derivative of mEG7-OH],white emulsion,4.61 mg/100 g,
CC(C)CCC[C@@H](C)[C@H]1CC[C@H]2[C@@H]3CC=C4C[C@@H](O)CC[C@]4(C)[C@H]3CC[C@]12C [cholesterol],completely insoluble,,< 0.2 mg/100 g
